Values of other authors, collected in patent US20240423898A1, “LONGEVITY EYE CREAM” (Wellbeam Consumer Health Intermediate, LLC, priority 2023, published 2024).

Tests used:
[1] = tested on: skin; settings: topical application
[2] = tested on: under-eye dark circles; settings: in vivo

Row | Compound | improvement in lines and wrinkles, pigmentation, elasticity, firmness, and overall reduction in photo-damage [1] | irritating effect on the skin [1] | under-eye dark circles [2]
1 | C=C[C@@](C)(/C=C/c1ccc(O)cc1)CCC=C(C)C [bakuchiol] | significant improvement | no irritating effect on the skin | 
2 | Cn1c(=O)c2c(ncn2C)n(C)c1=O [caffeine] |  |  | can reduce under-eye dark circles
